Assay results taken from PubChem BioAssay AID179 (DTP/NCI, 2004).
“And” between values parts separate entries of the source, which are not always exact repeats. Identical values can stand only once. The source made the active and inactive calls.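 How the source made its calls: active means compounds giving half or more protection of infected cells from virus-caused growth loss, again on retest; inactive means the rest.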

Tested on: CEM cells HIV-1 protection, formazan growth assay
Assay: NCI AIDS Antiviral Assay
Conditions: for IC50: measured here: growth of uninfected CEM cells
Outline: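 CEM (human) cells, HIV-1 infected vs uninfected, 5-point dosing, formazan growth read-out. Retest threshold 50% protection.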

SMILES	EC50	IC50	outcome
CN(C)CCCN1C(=S)N(CCCN(C)C)c2c3cc(O)ccc3nc3c([N+](=O)[O-])ccc1c23	> 2 µM	0.417 µM	–
CC1CCN(C(C)(C)C)P(=O)(Cc2ccccc2)O1 (centres undefined)	–	–	inactive
O=C(O)CCCCCCCCCCCc1ccccc1	> 200 µM	18.6 µM	–
N#CC(c1cc2c(cc1Br)OCO2)N1CCOCC1 (centres undefined)	> 200 µM	9.77 µM	–
CC/C(=C\c1ccc(OC)cc1)c1ccc(OC)cc1	> 200 µM	> 200 µM	–
C=CCC(CCC(CC=C)C(=O)O)C(=O)O (centres undefined)	> 1100 µM	> 1100 µM	–
CC1(C)OC(=O)C(=Cc2ccc(Br)cc2)C(=O)O1	> 417 µM	257 µM	–
CC(OCc1ccccc1)C(NC(=O)C1CSSCC(NC(=O)C(Cc2ccccc2)NC(=O)OCc2ccccc2)C(=O)NC(Cc2ccccc2)C(=O)NC(Cc2cn(C=O)c3ccccc23)C(=O)NC(CCCCNC(=O)OCc2ccccc2)C(=O)NC(C(C)OCc2ccccc2)C(=O)N1)C(N)=O (centres undefined)	> 100 µM	4.47 µM	–
Cn1cc(C=O)c2nccnc21	> 1050 µM	> 1050 µM	–
O=Nc1ccc(O)cc1	> 20 µM	3.89 µM	–
Cc1cn(C2CCN(c3ccccc3)O2)c(=O)[nH]c1=O (centres undefined)	> 200 µM	> 200 µM	–
CCOC(=O)/C(C#N)=C/c1cc2c3c(c1)CCCN3CCC2	> 100 µM	> 100 µM	–
CC(=O)OCC1OC(OC2C(CSC3OC(COC(C)=O)C(OC(C)=O)C(OC(C)=O)C3OC(C)=O)OC(OC(C)=O)C(OC(C)=O)C2OC(C)=O)C(OC(C)=O)C(OC(C)=O)C1OC(C)=O (centres undefined)	> 36.3 µM	> 36.3 µM	–
COc1cc(NC=O)c2c(c1)SCC(=O)N2	> 200 µM	135 µM	–
C#CCN1CCCC(O)C1 (centres undefined)	–	–	inactive
CN1C2CCC1CC(C)(O)C2 (centres undefined)	> 200 µM	> 200 µM	–
Nc1nc(Cl)n2nc[n+](C3C=CC(=O)CC3)c2n1 (centres undefined)	–	–	inactive
COc1ccc(NC(=O)C2=CC(=O)c3ccc(O)cc3C2=O)c(OC)c1	75.9 µM	708 µM	–
O=C(c1ccccc1)N1C(=S)N=C(Nc2ccccc2)C1=Nc1ccccc1	> 200 µM	> 200 µM	–
CC(=O)NC(CCCCNC(=O)OC(C)(C)C)C(=O)O (centres undefined)	> 200 µM	> 200 µM	–
O=c1c(-c2ccc3c(c2)OCO3)coc2c3c(ccc12)OCO3	–	–	inactive
CC(C)C1COC(C(C)(C)C2=N[C@@H](C(C)C)CO2)=N1 (some centres undefined)	> 251 µM	135 µM	–
Cc1ccc(N=C2C(=Nc3ccc(C)cc3)N(c3ccc(C)cc3)C(=S)N2C(=O)c2ccccc2)cc1	> 200 µM	> 200 µM	–

SMILES	EC50	IC50	outcome
COc1ccc(C2C3CCCC(C3=O)C(c3ccc(OC)cc3)N2N=O)cc1 (centres undefined)	> 19.1 µM	> 19.1 µM	–
COC(=O)C(Cc1ccccc1)NP(=O)(O)OCC1OC(n2cc(I)c(=O)[nH]c2=O)CC1O (centres undefined)	> 200 µM	> 200 µM	–
Cn1c2ccccc2c2nnc(N/N=C/c3cccnc3)nc21	> 200 µM	> 200 µM	–
CC1(C)CC(N2CCN(C3CC(C)(C)NC(C)(C)C3)CC2)CC(C)(C)N1	> 339 µM	> 339 µM	–
COc1ccc(/C=C/C(=O)/C=C/c2ccc(OC)cc2OC)c(OC)c1	> 200 µM	3.89 µM	–
O=C1OC(C(=O)O)c2ccc3c(c21)OCO3 (centres undefined)	> 398 µM	> 398 µM	–
c1cc(-c2ncc(-c3ccc4c(c3)CCCO4)o2)ccn1	> 200 µM	11.2 µM	–
C/C1=C/C(=O)O[C@@H]2C[C@@H](CC[C@H](C)/C=C\C=C\CC1)O[C@@](O)([C@@H]1CSC(=O)N1)C2	> 2 µM	0.363 µM	–
Nc1ncnc2c1ccn2CC#CCO	> 200 µM	> 200 µM	–
COC1(OC)CCC2C1C1CCC(OC)(OC)C21 (centres undefined)	> 141 µM	> 141 µM	–
CCOC(=O)c1[nH]c(COC(C)=O)c2c1CCCCCCCCCC2	–	–	inactive
O=[N+]([O-])c1cnc(/C=[N+](\[O-])CCO)n1CCO	–	–	inactive
CC(C)N1C(C)[C@@H](c2ccccc2)O[P@]1(=O)CC1=CCCCC1 (some centres undefined)	–	–	inactive
COc1ccc(C2=C(N)c3ccccc3C2=O)cc1	> 200 µM	> 200 µM	–
COC(=O)CCC1=C(C)c2cc3[n-]c(cc4nc(cc5[n-]c(cc1n2)c(CCC(=O)OC)c5C)C(C(C)=O)=C4C)c(C(C)=O)c3C.[Ni+2]	> 100 µM	> 100 µM	–
C[P+](Cc1ccccc1)(c1ccccc1)c1ccccc1	0.0631 µM	14.5 µM	–
CC1(C)CC2=NO[Se]3=C2C(=NO3)C1	> 3.55 µM	0.191 µM	–
CC1=C(C#N)C2(C(=O)Nc3ccccc32)C(C#N)=C(C)N1	> 162 µM	> 162 µM	–
CCOC(=O)c1cc2c3c(c1)C(=O)CCN3CCC2=O	–	–	inactive
CC1=C/C(=C(\c2cc(C)c(O)c(Br)c2)c2ccccc2S(=O)(=O)O)C=C(Br)C1=O	–	–	inactive
CCCN(CCC)CCc1ccc(OC2=CCN(C)CC2)cc1	> 200 µM	87.1 µM	–
C1CCC(OC2CSC2)OC1 (centres undefined)	> 389 µM	> 389 µM	–
NC1=NC2=c3ccccc3=C(c3cnccn3)C2(c2cnccn2)c2ccccc21 (centres undefined)	> 93.3 µM	70.8 µM	–

SMILES	EC50	IC50	outcome
CCOC(=O)NNC(=O)NC12CC3CC(CC(C3)C1)C2	–	–	inactive
CCCCCCCCCCCCCCCCNc1ccn(C2CC(OP(=O)(O)OCC3CCC(n4ccc(N)nc4=O)O3)C(CO)O2)c(=O)n1 (centres undefined)	1 µM	97.7 µM	–
O=c1c(-c2ccccc2)c[nH]c2cc([N+](=O)[O-])c(/C(Cl)=C/c3ccccc3)cc12	–	–	inactive
CNc1cc(C)ccc1S(=O)(=O)c1ccccc1[N+](=O)[O-]	0.219 µM	30.2 µM	–
CN(c1ccccc1Cl)S(=O)(=O)c1ccccc1	> 200 µM	70.8 µM	–
NC(N)=NS(=O)(=O)c1ccc(NCc2c3ccccc3nc3ccccc23)cc1	> 2 µM	0.195 µM	–
FC(F)(F)c1ccc2c(c1)N(CCCN1CCN(C3CC3)CC1)c1ccccc1S2	> 200 µM	33.1 µM	–
CCc1c(Cc2cc(C)cc(C)c2)n(COCCSc2ccccc2)c(=O)[nH]c1=O	0.49 µM	15.5 µM	–
CCOc1ccc(C(=O)CCN2CCC3CCC(C3)C2)cc1 (centres undefined)	> 200 µM	13.8 µM	–
Cc1ccc(-c2cc(=O)c(=O)[nH][nH]2)cc1	> 200 µM	> 200 µM	–
COC(=O)C(=O)C(C(=O)C(=O)Nc1nc2ccc(C)cc2s1)c1nc2ccc([N+](=O)[O-])cc2[nH]c1=O (centres undefined)	> 132 µM	126 µM	–
CCCCNC(=S)/C(C#N)=C1\Nc2ccccc2O1	> 200 µM	32.4 µM	–
N#CC1=CNc2ccccc2N=C1N	> 200 µM	> 200 µM	–
N#C/C(=C\c1cccc(Br)c1)C(=O)c1ccccc1	> 115 µM	50.1 µM	–
OCc1ncccc1O	> 200 µM	> 200 µM	–
N#CC(NNC(=O)Cc1ccccc1)c1c(O)ccc2ccccc12 (centres undefined)	> 56.2 µM	3.89 µM	–
CC1CC/C(=C\c2ccc(Cl)cc2)c2nc(N)c(C#N)c(-c3ccc(Cl)cc3)c21 (centres undefined)	> 200 µM	155 µM	–
CCN(CC)CCOC(=O)C1(CCC(C)C)CCCCC1	> 200 µM	123 µM	–
NS(=O)(=O)c1cc[c]([Sb]=[O])cc1	> 200 µM	61.7 µM	–
CC1=C(CCc2ccoc2)[C@@]2(C)CCCC(C)(C)C2C(=O)[C@@H]1O[C@H]1C(=O)C2C(C)(C)CCC[C@]2(C)[C@](O)(CCc2ccoc2)C1C (some centres undefined)	> 4.27 µM	> 4.27 µM	–
COC(=O)CNC(=O)CNC(=O)CSc1nnc(COc2ccc(Cl)cc2)n1-c1ccccc1	> 200 µM	30.9 µM	–
O=S(=O)(c1cc(Cl)ccc1Cl)N1CCN(S(=O)(=O)c2cc(Cl)ccc2Cl)CC1	> 200 µM	> 200 µM	–
CC(C)(C)C1=CC(=C2C(=O)C(=O)c3ccccc3C2=O)C=C(C(C)(C)C)C1=O	> 6.92 µM	> 6.92 µM	–

SMILES	EC50	IC50	outcome
CC1(CO)OC(n2cnc3cncnc32)CC1O (centres undefined)	18.2 µM	> 200 µM	–
O=[N+]([O-])c1cccc2nnccc12	> 200 µM	22.9 µM	–
C=CCC(C(=O)OCC)C1NCCc2c1[nH]c1ccccc21 (centres undefined)	> 45.7 µM	> 45.7 µM	–
O=C(NC(Cc1c[nH]c2ccccc12)C(=O)O)/C(=C/c1ccccc1)NC(=O)c1ccccc1 (centres undefined)	> 200 µM	135 µM	–
N#CC(NC12CC3CC(CC(C3)C1)C2)c1ccc2c(c1)OCO2 (centres undefined)	–	–	inactive
O=C1C2CN(Cc3ccccc3)CC2C(=O)N1c1ccccc1 (centres undefined)	> 200 µM	> 200 µM	–
Cc1[nH]c(=O)[nH]c(=O)c1Cl	–	–	inactive
S=C(NCCc1ccccn1)N/N=C/c1ccccn1	> 2 µM	0.0257 µM	–
CCOC(=O)NC(=O)c1cn(CCN2CCN(c3ncnc4nc[nH]c34)CC2)c(=O)[nH]c1=O	–	–	inactive
O=[N+]([O-])c1ccc(-c2ccc(-c3csc(Nc4ccccn4)n3)o2)cc1	> 5.5 µM	> 5.5 µM	–
CNC(=O)NCCCCC(NC(=O)OCc1ccccc1)C(=O)OCc1ccccc1 (centres undefined)	> 83.2 µM	60.3 µM	–
Cc1ccccc1NC(=O)NC(Oc1ccccc1)(C(F)(F)F)C(F)(F)F	> 200 µM	> 200 µM	–
CCN(CC)CC(=O)NC1c2ccccc2Oc2ccccc21	> 219 µM	> 219 µM	–
O=C(Nc1cccc(NC(=O)c2cc(=O)c3ccccc3o2)n1)c1cc(=O)c2ccccc2o1	> 151 µM	> 151 µM	–
O=c1c2ccc(Cl)cc2nc2nc(-c3ccccc3)c3cc(Cl)ccc3n12	> 200 µM	> 100 µM	–
O=C1CC(=O)NC(=NN2C(=O)CSC2C(=O)c2ccco2)N1 (centres undefined)	35.5 µM	575 µM	–
C=C(CCCO)[C@@H]1CC[C@@](C)(O)[C@H]1C	–	–	inactive
O=C1C(c2ccc([N+](=O)[O-])cc2)=[N+]([O-])c2ccccc21	–	–	inactive
COC(=O)/C=c1\sc2n(c1=O)CCCCN=2	> 417 µM	240 µM	–
Nc1ncnc2c1[nH]c(=O)n2-c1ccccc1	> 200 µM	178 µM	–
COc1ccc2c(c1)CC1c3[nH]c4ccccc4c3CCN1C2 (centres undefined)	56.2 µM and > 102 µM	102 µM and 46.8 µM	–
